Drawing on US8551981B2, “Furo[3,2-d]pyrimidine compounds” (AbbVie Inc., priority 2010, dated 2013), this text covers inhibition in vivo for 50 molecules.

The test deals with Fcγ receptor signaling. In words: Reverse Passive Arthus model. Type of test: in vivo. To be noted: Rattus norvegicus, single dose 10 mg/kg. Here is the method: Acute in vivo measurement of Fcγ receptor signaling inhibition of the compounds is measured using the:
Reverse Passive Arthus Model
On day 0 OVA was made up at a concentration of 17 mg/mL, in PBS by rocking gently until a solution was formed. 2% Evans Blue solution (Sigma Aldrich, cat# E2129) was then added to double the volume for a final concentration of 8.5 mg/mL of OVA and 1% Evans Blue dye. Anti-OVA antibody (Abazyme), stock concentration 10 mg/mL, was thawed and a 4 mg/mL solution was made with PBS. Compounds were made up in 0.5% HPMC with 0.02% Tween 80, and vortexed for about 15 seconds followed by homogenization for a minimum of about 2 min at 28,000 RPM until there was a fine particulate suspension with no clumps of compound. Rats were weighed and dosed with compound at a pre-determined time based on compound Tmax determined in pharmacokinetic studies. Animals were then placed under general anesthesia with a 5% isoflourane and oxygen mixture and shaved. Using a 0.5 cc insulin syringe two sites were injected i.d., 1 site with 100 μL of 4.0 mg/mL of anti-OVA antibody, and 1 site with 100 μL of sterile PBS. Each injection site was circled with a permanent marker to mark the site. Immediately following i.d. injections, animals were injected with 200 μL of the OVA (10 mg/kg)/1% Evans Blue mixture, i.v., using a 0.5 cc insulin syringe. About 4 h post injection animals were euthanized, bled via cardiac puncture and blood was put into plasma separation tubes. Blood samples were stored on ice until centrifugation (within about 2 h of collection). Each injection site was removed with a disposable biopsy punch (Acuderm Acu-Punch Disposable 12 mm), cut into four pieces and placed in a pre-labeled 2 mL eppendorf tube. One mL of DMF (99%) was added to each biopsy tube and they were placed in a heat block at about 50° C. for about 24 h. After incubation, 100 μL of each sample was transferred to a 96 well flat bottom plate and read at 620 nm on a plate reader using the Softmax software. Background was removed by subtracting the OD from the PBS injected site from the OD of the anti-OVA injected site for each individual animal. Plasma samples were spun down in a microcentrifuge (Eppendorf 5415R) for about 5 min at 16.1 rcf. 200 μL of plasma was placed in a 1.7 mL eppendorf tube for drug level measurements and tubes were stored at about −80° C. until evaluation.

On to `Clc1cc(Nc2nc(NC3CCC3)c3occc3n2)ccc1N1CCOCC1` [B.5.2], for which the inhibition in vivo (as a rule, the drop in the measured response relative to a control, in per cent) at 10 mg/kg stood at 55%. Turning to `Cn1ncc2cc(Nc3nc(NC4CC4)c4occc4n3)ccc21` [B.5.8], the inhibition in vivo at 10 mg/kg was 49%. As to `FC(F)(F)CNc1nc(Nc2ccc(N3CCOCC3)c(Cl)c2)nc2ccoc12` [B.5.13], the inhibition in vivo at 10 mg/kg stood at 17%. With `O=C1Nc2cc(Nc3nc(NC4CC4)c4occc4n3)ccc2OC1(F)F` [B.5.40], the inhibition in vivo at 10 mg/kg stood at 3%.

Take `CC1(C)Cc2ccc(Nc3nc(NC4CC4)c4occc4n3)cc2NC1=O` [B.5.41]: the inhibition in vivo at 10 mg/kg amounted to 42%. Regarding `CC(C)(C#N)c1ccc(Nc2nc(NC3CC3)c3occc3n2)cc1` [B.5.42], the inhibition in vivo at 10 mg/kg amounted to 27%. On to `O=c1[nH]c2cc(Nc3nc(NC4CC4)c4occc4n3)ccc2cc1CO` [B.5.50], for which the inhibition in vivo at 10 mg/kg was 0%. For `O=c1ccc2ccc(Nc3nc(NC4CC4)c4occc4n3)cc2o1` [B.5.52], the inhibition in vivo at 10 mg/kg came to 0%. Regarding `O=C1CCCc2cc(Nc3nc(NC4CC4)c4occc4n3)ccc2N1` [B.5.56], the inhibition in vivo at 10 mg/kg amounted to 49%. As for `CC1(C)C(=O)Nc2cc(Nc3nc(N4CCC(CNCC(F)F)CC4)c4occc4n3)ccc21` [B.5.60], the inhibition in vivo at 10 mg/kg turned out to be 10%. With `CC1(C)C(=O)Nc2cc(Nc3nc(N[C@@H]4[C@H](C(N)=O)[C@H]5C=C[C@@H]4C5)c4occc4n3)ccc21` [B.5.61], the inhibition in vivo at 10 mg/kg is 1%. For `CC1(C)Oc2ccc(Nc3nc(Nc4ccc5c(c4)NC(=O)C(C)(C)O5)c4occc4n3)cc2NC1=O` [B.5.62], the inhibition in vivo at 10 mg/kg is 16%. In the case of `CC1(C)Oc2ccc(Nc3nc(N4CCC(CNCCS(C)(=O)=O)CC4)c4occc4n3)cc2NC1=O` [B.5.65], the inhibition in vivo at 10 mg/kg is 9%.

Turning to `CC1(C)C(=O)Nc2cc(Nc3nc(N4CCC(CNCCS(C)(=O)=O)CC4)c4occc4n3)ccc21` [B.5.68], the inhibition in vivo at 10 mg/kg came out at 1%. Turning to `CC1(C)C(=O)Nc2cc(Nc3nc(N4CCC(CNCCF)CC4)c4occc4n3)ccc21` [B.5.77], the inhibition in vivo at 10 mg/kg was determined as 20%.

For the molecule `CC(C)CNc1nc(Nc2ccc3c(c2)NC(=O)C3(C)C)nc2ccoc12` [B.5.80], the inhibition in vivo at 10 mg/kg was 46%.

With `CCCNc1nc(Nc2ccc3c(c2)NC(=O)C3(C)C)nc2ccoc12` [B.5.81], the inhibition in vivo at 10 mg/kg came out at 16%. As for `O=C1COc2ccc(Nc3nc(N4CCC(CNCC(F)F)CC4)c4occc4n3)cc2N1` [B.5.84], the inhibition in vivo at 10 mg/kg was 38%. As for `FC(F)CNCC1CCN(c2nc(Nc3ccc(N4CCOCC4)c(Cl)c3)nc3ccoc23)CC1` [B.5.85], the figure is 52%; as for `Cc1cc2ccc(Nc3nc(NC4CC4)c4occc4n3)cc2[nH]c1=O` [B.5.99], 16%.

`CC1(C)C(=O)Nc2cc(Nc3nc(NC4CCC4)c4occc4n3)ccc21` [B.5.108]: the inhibition in vivo at 10 mg/kg was 56%.

Regarding `CNCC1CCN(c2nc(Nc3ccc(N4CCN(C(C)=O)CC4)cc3)nc3ccoc23)CC1` [C.1.2], the inhibition in vivo at 10 mg/kg is -17%. On to `CC(=O)N(C)c1ccc(Nc2nc(N3CCC(CN)CC3)c3occc3n2)cc1` [C.1.7], for which the inhibition in vivo at 10 mg/kg was 22%. Regarding `CCCC(=O)Nc1ccc(Nc2nc(N3CCC(CN)CC3)c3occc3n2)cc1` [C.1.8], the inhibition in vivo at 10 mg/kg came out at 0%. As for `CNCC1CCN(c2nc(Nc3ccc4cn[nH]c4c3)nc3ccoc23)CC1` [C.1.23], the figure is -15%; as for `Cc1n[nH]c2cc(Nc3nc(N4CCCC(N)CC4)c4occc4n3)ccc12` (centres unmarked) [C.1.29], -5%. For `Cc1n[nH]c2cc(Nc3nc(N4CCC(C)(CN)CC4)c4occc4n3)ccc12` [C.1.31], the inhibition in vivo at 10 mg/kg came to 0%.

For the molecule `CC1(CN)CCN(c2nc(Nc3ccc4c(c3)NC(=O)C4(C)C)nc3ccoc23)CC1` [C.1.32], the inhibition in vivo at 10 mg/kg turned out to be 8%. With `CC1(CN)CCN(c2nc(Nc3ccc4c(c3)NC(=O)C(C)(C)O4)nc3ccoc23)CC1` [C.1.33] the figure was 30%; with `CC1(C)Oc2ccc(Nc3nc(N4CCC5(CCCNC5)C4)c4occc4n3)cc2NC1=O` (centres unmarked) [C.1.36], -31%. Regarding `CC1(C)C(=O)Nc2cc(Nc3nc(N4CCC5(CCCNC5)CC4)c4occc4n3)ccc21` [C.1.37], the inhibition in vivo at 10 mg/kg is -5%. For the molecule `COc1cc(Nc2nc(N3CCC4(CCCNC4)CC3)c3occc3n2)ccc1N1CCOCC1` [C.1.39], the inhibition in vivo at 10 mg/kg was found to be 44%. As to `Cn1ncc2cc(Nc3nc(N4CCC5(CCNC5)CC4)c4occc4n3)ccc21` [C.1.40], the inhibition in vivo at 10 mg/kg was found to be 40%. For the molecule `Clc1cc(Nc2nc(N3CCC4(CCCNC4)CC3)c3occc3n2)ccc1N1CCOCC1` [C.1.41], the inhibition in vivo at 10 mg/kg came out at 40%. As for `Cn1ncc2cc(Nc3nc(N4CCC5(CCCNC5)CC4)c4occc4n3)ccc21` [C.1.43], the figure is 56%. As to `Clc1cc(Nc2nc(N3CCC4(CCNC4)CC3)c3occc3n2)ccc1N1CCOCC1` [C.1.44], the inhibition in vivo at 10 mg/kg is 54%. For `CNCC1CCN(c2nc(Nc3ccc4c(C)n[nH]c4c3)nc3ccoc23)CC1` [C.1.48], the inhibition in vivo at 10 mg/kg is 1%. For the molecule `CNCC1CCN(c2nc(Nc3ccc4c(cnn4C)c3)nc3ccoc23)CC1` [C.1.49], the inhibition in vivo at 10 mg/kg was -20%. In the case of `CNCC1CCN(c2nc(Nc3ccc4c(c3)NC(=O)C4(C)C)nc3ccoc23)CC1` [C.1.51], the inhibition in vivo at 10 mg/kg is -7%. In the case of `Cc1n[nH]c2cc(Nc3nc(N[C@@H]4[C@H](C(N)=O)[C@H]5C=C[C@@H]4C5)c4occc4n3)ccc12` [C.1.52], the inhibition in vivo at 10 mg/kg was 8%. As for `CNCC1CCN(c2nc(Nc3ccc(C(C)(C)C#N)cc3)nc3ccoc23)CC1` [C.1.57], the figure is 12%; as for `CC1(C)Oc2ccc(Nc3nc(N4CCC5(CCNC5)CC4)c4occc4n3)cc2NC1=O` [C.1.58], -18%; as for `CC1(C)Oc2ccc(Nc3nc(N4CCC5(CCCNC5)CC4)c4occc4n3)cc2NC1=O` [C.1.59], 20%. As for `Cc1n[nH]c2cc(Nc3nc(N4CCC(CNCCS(C)(=O)=O)CC4)c4occc4n3)ccc12` [C.1.60], the inhibition in vivo at 10 mg/kg was determined as 24%.

Turning to `NCC1CCN(c2nc(Nc3ccc4c(c3)NC(=O)CC4)nc3ccoc23)CC1` [C.1.61], the inhibition in vivo at 10 mg/kg amounted to 20%. Turning to `CC(N)C1CCN(c2nc(Nc3ccc4c(c3)NC(=O)C(C)(C)O4)nc3ccoc23)CC1` (centres unmarked) [C.1.62], the inhibition in vivo at 10 mg/kg was -6%. Turning to `CNCC1CCN(c2nc(Nc3ccc4c(c3)NC(=O)C(C)(C)S4)nc3ccoc23)CC1` [C.1.71], the inhibition in vivo at 10 mg/kg was 85%. For the molecule `O=C(NC1CC1)c1n[nH]c2cc(Nc3nc(NC4CC4)c4occc4n3)ccc12` [E.2.1, N-Cyclopropyl-6-(4-(cyclopropylamino)furo[3,2-d]pyrimidin-2-ylamino)-1H-indazole-3-carboxamide], the inhibition in vivo at 10 mg/kg was -1%.

Turning to `Cc1n[nH]c2cc(Nc3nc(NC4CC4)c4occc4n3)ccc12` [Example #3, N^4-Cyclopropyl-N^2-(3-methyl-1H-indazol-6-yl)furo[3,2-d]pyrimidine-2,4-diamine], the inhibition in vivo at 10 mg/kg turned out to be 75%. As to `CC1Cc2ccc(Nc3nc(NC4CC4)c4occc4n3)cc2NC1=O` (centres unmarked) [Example #6, 7-(4-(Cyclopropylamino)furo[3,2-d]pyrimidin-2-ylamino)-3-methyl-3,4-dihydroquinolin-2(1H)-one], the inhibition in vivo at 10 mg/kg was 59%.
